Some test systems named below: MCF7 breast; MOLT-4 leukemia; NCI-H460 lung; RXF 393 renal; SF-268 CNS; SF-539 CNS; SK-MEL-5 melanoma; M14 melanoma; TK-10 renal; MDA-MB-435.
What all share (assay): NCI tumour cell line growth inhibition, 48 h

Our source for the TGI and GI50 values is PubChem BioAssay (NCI).

Structures are written as SMILES.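 Test compounds were applied to cells in 96-well plates for 48 hours at 5 doses. GI50 = concentration required for 50% inhibition of growth. TGI: concentration producing complete growth inhibition.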

Take `CCOC(=O)/C=C/c1c(C)[nH]c(=O)[nH]c1=O`: the TGI in the assay on MCF7 breast, in the assay with MOLT-4 leukemia, in the assay with NCI-H460 lung, in the assay on RXF 393 renal, with SF-268 CNS and in the assay with SF-539 CNS was more than 250 µM each time. Further, the TGI with SK-MEL-5 melanoma is more than 250 µM.

Regarding `O=C(NN1C(=O)C(Cl)C1c1cccc([N+](=O)[O-])c1)c1ccccc1O` (stereo unspecified), the TGI in the assay with M14 melanoma, in the assay with MOLT-4 leukemia, with NCI-H460 lung, with RXF 393 renal, in the assay with SF-268 CNS and with SF-539 CNS was more than 100 µM each time. For the same molecule, the TGI with SK-MEL-5 melanoma and in the assay with TK-10 renal was more than 100 µM each time.

On to `c1ccc2c(c1)NCc1cc3ccccc3nc1O2`, for which the TGI in the assay with MCF7 breast, in the assay on MOLT-4 leukemia, in the assay on NCI-H460 lung, with RXF 393 renal, with SF-268 CNS and in the assay on SF-539 CNS was more than 100 µM in each case. Moreover, the TGI in the assay with SK-MEL-5 melanoma is more than 100 µM.

In the case of `N#[N+]c1c([O-])c2ccccc2c2ccccc12`, the TGI was more than 100 µM with M14 melanoma; more than 100 µM in the assay with MCF7 breast; more than 100 µM with MDA-MB-435; more than 100 µM with MOLT-4 leukemia; more than 100 µM in the assay on NCI-H460 lung; 45 µM with RXF 393 renal. The TGI is more than 100 µM in the assay with SF-268 CNS, 91 µM in the assay with SF-539 CNS, 35.4 µM with SK-MEL-5 melanoma and more than 100 µM in the assay on TK-10 renal.

On to `O=C1C(CO)=C[C@H](O)[C@H]2O[C@@H]12`, for which the TGI is 271 µM in the assay on MCF7 breast; 355 µM in the assay with MOLT-4 leukemia; 420 µM with NCI-H460 lung; 402 µM with RXF 393 renal; 298 µM in the assay with SF-268 CNS; more than 562 µM in the assay on SF-539 CNS. The molecule further displayed a TGI in the assay with SK-MEL-5 melanoma of 389 µM.

As to `Cc1cn(-c2cccc(NC(=O)c3ccc(C)c(Nc4nccc(-c5cccnc5)n4)c3)c2)cn1`, the GI50 in the assay with M14 melanoma is 2.08 µM; in the assay with MCF7 breast, 1.94 µM; in the assay with MDA-MB-435, 1.86 µM; in the assay on MOLT-4 leukemia, 1.92 µM; in the assay on NCI-H460 lung, 1.97 µM; with RXF 393 renal, 1.62 µM. The GI50 in the assay with SF-268 CNS was 2.92 µM; with SF-539 CNS, 1.45 µM; in the assay with SK-MEL-5 melanoma, 2.16 µM; with TK-10 renal it was 2.04 µM. Besides, the TGI with M14 melanoma came to 5.47 µM; with MCF7 breast, 4.74 µM; in the assay on MDA-MB-435 it was 3.87 µM; in the assay with MOLT-4 leukemia, 6.56 µM; in the assay on NCI-H460 lung, 4.05 µM; in the assay on RXF 393 renal, 3.03 µM. Moreover, the TGI was determined as 9.58 µM in the assay with SF-268 CNS, 2.97 µM with SF-539 CNS, 7.46 µM with SK-MEL-5 melanoma and 3.6 µM in the assay on TK-10 renal.

As to `C/C(=N\NC(=S)N1CCC(N2CCCCC2)CC1)c1ccccn1`, the TGI was 3.8 µM in the assay on M14 melanoma; 10.6 µM in the assay with MCF7 breast; 6 µM in the assay with MDA-MB-435; more than 21 µM in the assay with MOLT-4 leukemia; 7.23 µM in the assay with NCI-H460 lung; 2.29 µM in the assay on RXF 393 renal. The TGI in the assay on SF-268 CNS amounted to 12.9 µM; in the assay with SF-539 CNS, 8.36 µM; in the assay with SK-MEL-5 melanoma it was 8.22 µM; with TK-10 renal it was 6.29 µM.

For `O=c1nc2ccc([N+](=O)[O-])cc2[n+]([O-])[nH]1`, the TGI in the assay with M14 melanoma, in the assay with MCF7 breast, with MDA-MB-435, in the assay with MOLT-4 leukemia, in the assay with NCI-H460 lung and with RXF 393 renal was more than 100 µM throughout. Besides, the TGI with SF-268 CNS, in the assay with SF-539 CNS, in the assay on SK-MEL-5 melanoma and with TK-10 renal was more than 100 µM throughout.

As for `CCOC(=O)NC(Nc1cc(Cl)ccc1OC)(C(F)(F)F)C(F)(F)F`, the TGI in the assay with M14 melanoma, in the assay with MCF7 breast, in the assay on MDA-MB-435, with MOLT-4 leukemia, in the assay on NCI-H460 lung and in the assay on RXF 393 renal was more than 100 µM in each case. In addition, the TGI with SF-268 CNS, in the assay with SF-539 CNS, with SK-MEL-5 melanoma and in the assay on TK-10 renal was more than 100 µM each time.

Turning to `COc1cc(-c2ccc(N=Nc3ccc4c(S(=O)(=O)O)cc(S(=O)(=O)O)c(N)c4c3O)c(OC)c2)ccc1N=Nc1ccc2c(S(=O)(=O)O)cc(S(=O)(=O)O)c(N)c2c1O`, the TGI in the assay on MCF7 breast, in the assay with MOLT-4 leukemia, with NCI-H460 lung, in the assay with RXF 393 renal, in the assay on SF-268 CNS and in the assay with SF-539 CNS was more than 100 µM each time. In the assay with SK-MEL-5 melanoma, this molecule showed a TGI of more than 100 µM.

Turning to `COc1ccc(C2=[S+]C(c3ccccc3)(c3ccccc3)c3ccccc32)cc1`, the TGI in the assay on M14 melanoma is 31.4 µM; in the assay on MCF7 breast, more than 100 µM; with MDA-MB-435 it was 41.1 µM; in the assay on MOLT-4 leukemia, 61 µM; with NCI-H460 lung, 30.5 µM; in the assay on RXF 393 renal it was 26 µM. Besides, the TGI in the assay with SF-268 CNS was more than 100 µM; with SF-539 CNS it was 40.4 µM; in the assay on SK-MEL-5 melanoma, 31.5 µM; in the assay with TK-10 renal, 73.3 µM.

`COc1cccc2c1C(=O)c1c(O)c3c(c(O)c1C2=O)C[C@@](O)(C(=O)COC(=O)c1ccccc1)C[C@@H]3OC1CC(N)C(O)C(C)O1` (stereo partly specified): the GI50 in the assay on M14 melanoma was 0.21 µM; in the assay on MDA-MB-435, 0.137 µM; in the assay on MOLT-4 leukemia it was 0.0302 µM; with NCI-H460 lung it was 0.0167 µM; with RXF 393 renal it was 0.195 µM; in the assay on SF-268 CNS it was 0.173 µM. Further, the GI50 with SF-539 CNS is 0.254 µM; with SK-MEL-5 melanoma it was 0.2 µM; with TK-10 renal it was 0.151 µM. The TGI in the assay on M14 melanoma was found to be 1.35 µM; in the assay on MDA-MB-435, 0.284 µM; with MOLT-4 leukemia, 0.275 µM; with NCI-H460 lung, 0.182 µM; in the assay on RXF 393 renal, 0.859 µM; in the assay on SF-268 CNS, 1.34 µM. Besides, the TGI in the assay with SF-539 CNS is 1.13 µM; in the assay with SK-MEL-5 melanoma, 0.712 µM; in the assay with TK-10 renal it was 0.879 µM.

`c1ccc2c(c1)c1ccccc1n2Cn1c2ccccc2c2ccccc21`: the TGI with M14 melanoma, in the assay with MDA-MB-435, in the assay on MOLT-4 leukemia, in the assay on NCI-H460 lung, with RXF 393 renal and in the assay on SF-268 CNS was more than 100 µM in each case. The TGI in the assay with SK-MEL-5 melanoma and in the assay with TK-10 renal was more than 100 µM in each case.

Consider `C/C(=N\NC(=O)c1ccc(Cl)cc1)c1nc2ncccc2[nH]1`, for which the TGI in the assay with M14 melanoma is more than 100 µM; in the assay with MCF7 breast, more than 100 µM; with MDA-MB-435, more than 100 µM; with MOLT-4 leukemia, 90.6 µM; in the assay with NCI-H460 lung it was more than 100 µM; with RXF 393 renal, 55.4 µM. The TGI in the assay with SF-268 CNS was more than 100 µM; in the assay with SF-539 CNS it was 40.3 µM; in the assay on SK-MEL-5 melanoma, 55.6 µM; in the assay on TK-10 renal, 64.9 µM.

On to `O=C(N/N=C\c1cccc2ccccc12)Nc1ccccc1`, for which the TGI with M14 melanoma, with MCF7 breast, in the assay on MDA-MB-435, with MOLT-4 leukemia, with NCI-H460 lung and in the assay on RXF 393 renal was more than 100 µM throughout. Further, the TGI with SK-MEL-5 melanoma and in the assay on TK-10 renal was more than 100 µM each time.

As to `O=c1[nH]c(SCc2cccc([N+](=O)[O-])c2)nc2nc[nH]c12`, the TGI with M14 melanoma, in the assay on MCF7 breast, in the assay on MDA-MB-435, with MOLT-4 leukemia, with NCI-H460 lung and in the assay on RXF 393 renal was more than 100 µM throughout. The TGI in the assay with SF-268 CNS, with SK-MEL-5 melanoma and in the assay with TK-10 renal was more than 100 µM throughout.

Consider `O=c1oc(-c2ccc(O)cc2)cc2cc(O)ccc12`, for which the TGI in the assay on M14 melanoma amounted to 55.5 µM; with MCF7 breast, 52.9 µM; in the assay on MDA-MB-435 it was 78.9 µM; in the assay with MOLT-4 leukemia, 69.2 µM; in the assay with NCI-H460 lung, 58.2 µM; in the assay with RXF 393 renal, 54.4 µM. Besides, the TGI in the assay on SF-268 CNS was 97.6 µM; with SF-539 CNS, more than 100 µM; with SK-MEL-5 melanoma, 30.2 µM; with TK-10 renal, more than 100 µM.

For the molecule `Cc1ccc(Cl)cc1N=NC(=O)NNc1cc(Cl)ccc1C`, the TGI in the assay with M14 melanoma is 34.7 µM; with MCF7 breast, 80.7 µM; in the assay with MDA-MB-435 it was 99 µM; in the assay on MOLT-4 leukemia, more than 100 µM; with NCI-H460 lung it was 39 µM; in the assay with RXF 393 renal, 72.7 µM. In the assay on SK-MEL-5 melanoma, the TGI came to 29.1 µM.
